Reference: the Kinase Knowledgebase extract (Sharma et al. 2016)

Each molecule was assayed against MAPK14 (human) (UniProt Q16539) (assay: Inhibition of MAPK14 Kinase Activity).
Sequence of MAPK14 (human) (Q16539 whole entry, looked up): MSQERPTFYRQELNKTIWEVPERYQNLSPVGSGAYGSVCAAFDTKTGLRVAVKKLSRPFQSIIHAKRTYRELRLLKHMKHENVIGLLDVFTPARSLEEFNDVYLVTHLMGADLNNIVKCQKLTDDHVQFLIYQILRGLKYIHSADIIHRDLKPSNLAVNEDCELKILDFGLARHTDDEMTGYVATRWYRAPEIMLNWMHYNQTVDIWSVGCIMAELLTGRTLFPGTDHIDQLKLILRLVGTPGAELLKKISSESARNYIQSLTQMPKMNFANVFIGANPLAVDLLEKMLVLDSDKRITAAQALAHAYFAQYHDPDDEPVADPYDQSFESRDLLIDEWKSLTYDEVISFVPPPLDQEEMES

IC50, < 10 µM:
CCNC(=O)c1cc(F)c(C)c(-c2ccc3c(-c4ccc(F)cc4C)n[nH]c3c2)c1, Cc1c(F)cc(C(=O)NC2CC2)cc1-c1ccc2c(cnn2-c2ccc(NC3CCOCC3)cc2)c1, CCNC(=O)c1ccc(C)c(-c2ccc3c(-c4cnccn4)n[nH]c3c2)c1, Cc1c(F)cc(C(=O)Nc2cc[nH]n2)cc1-c1ccc2c(-c3ccc(F)cc3)n[nH]c2c1, Cc1c(F)cc(C(=O)NC2CC2)cc1-c1ccc2c(cnn2Cc2cccnc2)c1, CCNC(=O)c1cc(F)c(C)c(-c2ccc3c(-c4ccc(F)cc4OC)n[nH]c3c2)c1, CCNC(=O)c1ccc(C)c(-c2ccc3c(-c4ccc(N5CCOCC5)nc4)n[nH]c3c2)c1, CCNC(=O)c1cc(F)c(C)c(-c2ccc3c(-c4ccnc(C)c4)n[nH]c3c2)c1, Cc1c(F)cc(C(=O)Nc2ccnn2C)cc1-c1ccc2c(-c3ccc(F)cc3)n[nH]c2c1, Cc1c(F)cc(C(=O)NC2CC2)cc1-c1ccc2c(cnn2Cc2ccccn2)c1, Cc1c(F)cc(C(=O)NC2CC2)cc1-c1ccc2c(cnn2-c2ccc(NCC(O)CO)cc2)c1 (configuration not stated), CCNC(=O)c1ccc(C)c(-c2ccc3c(-c4cc(C)nn4C)n[nH]c3c2)c1, Cc1c(F)cc(C(=O)NC2CC2)cc1-c1ccc2c(cnn2Cc2cc[n+]([O-])cc2)c1, Cc1c(F)cc(C(=O)NC2CCCC2)cc1-c1ccc2c(cnn2-c2ccccc2)c1, Cc1c(F)cc(C(N)=O)cc1-c1ccc2c(cnn2-c2ccccc2)c1, CCNC(=O)c1cc(F)c(C)c(-c2ccc3c(-c4cnc(C)n4C)n[nH]c3c2)c1, CNC(=O)Cc1ccc(-n2ncc3cc(-c4cc(C(=O)NC5CC5)cc(F)c4C)ccc32)cc1, Cc1ccc(C(=O)NC2CCC2)cc1-c1ccc2c(cnn2-c2ccc(F)cc2)c1, Cc1c(F)cc(C(=O)NC2CC2)cc1-c1ccc2c(cnn2-c2ccc(NCCCN(C)C)cc2)c1, Cc1c(F)cc(C(=O)NC2CC2)cc1-c1ccc2c(cnn2-c2ccccc2)c1, Cc1c(F)cc(C(=O)NC2CC2)cc1-c1ccc2c(cnn2-c2ccc(NCC3CCCCC3)cc2)c1, CCNC(=O)c1cc(F)c(C)c(-c2ccc3c(-c4ccccn4)n[nH]c3c2)c1, Cc1c(F)cc(C(=O)NC2CC2)cc1-c1ccc2c(cnn2Cc2ccncc2)c1, Cc1c(F)cc(C(=O)NC2CC2)cc1-c1ccc2c(-c3ccc(O)cc3)noc2c1, CCn1nccc1NC(=O)c1cc(F)c(C)c(-c2ccc3c(-c4ccc(F)cc4)n[nH]c3c2)c1, CCNC(=O)c1cc(F)c(C)c(-c2ccc3c(-c4ccc(Cl)cc4)n[nH]c3c2)c1, CCNC(=O)c1ccc(C)c(-c2ccc3c(-c4ccc(OCC)cc4)n[nH]c3c2)c1, Cc1c(F)cc(C(=O)NC2CC2)cc1-c1ccc2c(cnn2Cc2ccccc2)c1, Cc1c(F)cc(C(=O)NC2CC2)cc1-c1ccc2c(cnn2-c2ccc(NCCN(C)C)cc2)c1, Cc1ccc(C(=O)Nc2ccc(F)cc2)cc1-c1ccc2c(cnn2-c2ccccc2)c1, Cc1c(F)cc(C(=O)NC2CC2)cc1-c1ccc2c(ccn2-c2ccccn2)c1, CCNC(=O)c1cc(F)c(C)c(-c2ccc3c(-c4c(C)noc4C)n[nH]c3c2)c1, CCNC(=O)c1ccc(C)c(-c2ccc3c(-c4ccc(OC)cc4)n[nH]c3c2)c1, Cc1c(F)cc(C(=O)NC2CC2)cc1-c1ccc2c(cnn2Cc2ccc[n+]([O-])c2)c1, Cc1c(F)cc(C(=O)NC(C)C)cc1-c1ccc2c(cnn2-c2ccccc2)c1, CCNC(=O)c1cc(F)c(C)c(-c2ccc3c(-c4ccc(OC)nc4)n[nH]c3c2)c1, Cc1c(F)cc(C(=O)NC2CC2)cc1-c1ccc2c(cnn2-c2ccc(N3CCOCC3)cc2)c1, Cc1c(F)cc(C(=O)Nc2ncccn2)cc1-c1ccc2c(cnn2-c2ccccc2)c1, CCNC(=O)c1cc(F)c(C)c(-c2ccc3c(-c4ncccn4)n[nH]c3c2)c1, Cc1c(F)cc(C(=O)Nc2cccnn2)cc1-c1ccc2c(cnn2-c2ccccc2)c1, Cc1ccc(C(=O)Nc2c(C)noc2C)cc1-c1ccc2c(-c3ccc(F)cc3)n[nH]c2c1, CCNC(=O)c1cc(F)c(C)c(-c2ccc3c(-c4ccc(C)cc4)n[nH]c3c2)c1, CCNC(=O)c1cc(F)c(C)c(-c2ccc3c(-c4cccnc4OC)n[nH]c3c2)c1, CCNC(=O)c1cc(F)c(C)c(-c2ccc3c(-c4cccnc4)n[nH]c3c2)c1, CCNC(=O)c1ccc(C)c(-c2ccc3c(-c4ccc(F)cc4)n[nH]c3c2)c1, Cc1c(F)cc(C(=O)Nc2ccc(F)cc2)cc1-c1ccc2c(cnn2-c2ccccc2)c1, Cc1c(F)cc(C(=O)NC2CC2)cc1-c1ccc2c(cnn2Cc2cccc[n+]2[O-])c1, Cc1ccc(C(=O)Nc2c(C)cnn2C)cc1-c1ccc2c(-c3ccc(F)cc3)n[nH]c2c1, CCNC(=O)c1ccc(C)c(-c2ccc3c(-c4ccc(F)nc4)n[nH]c3c2)c1, Cc1c(F)cc(C(=O)NC2CC2)cc1-c1ccc2c(cnn2-c2ccc(F)cc2)c1, CNC(=O)c1cc(F)c(C)c(-c2ccc3c(cnn3-c3ccccc3)c2)c1, Cc1cccc(-n2ncc3cc(-c4cc(C(=O)NC5CC5)cc(F)c4C)ccc32)c1, Cc1c(F)cc(C(=O)NC2CC2)cc1-c1ccc2c(cnn2Cc2ccc(C(F)(F)F)cc2)c1, Cc1c(F)cc(C(=O)NC2CC2)cc1-c1ccc2c(ccn2-c2ccc(C#N)cc2)c1, Cc1ccc(C(=O)NC2CC2)cc1-c1ccc2c(-c3ccc(F)cc3)n[nH]c2c1, Cc1c(F)cc(C(=O)NC2CC2)cc1-c1ccc2c(cnn2-c2ccc(S(C)(=O)=O)cc2)c1, Cc1ccc(C(=O)NC2CC2)cc1-c1ccc2c(cnn2-c2ccc(F)cc2)c1, Cc1c(F)cc(C(=O)NC2CC2)cc1-c1ccc2c(cnn2Cc2ccc(F)cc2)c1, Cc1c(F)cc(C(=O)NC2CC2)cc1-c1ccc2c(ccn2-c2cccnc2)c1, Cc1c(F)cc(C(=O)NC2CC2)cc1-c1ccc2c(cnn2-c2ccc(NCC3CCCO3)cc2)c1 (configuration not stated), Cc1cc(Cn2ncc3cc(-c4cc(C(=O)NC5CC5)cc(F)c4C)ccc32)no1, Cc1cnn(C)c1NC(=O)c1cc(F)c(C)c(-c2ccc3c(-c4ccc(F)cc4)n[nH]c3c2)c1, Cc1c(F)cc(C(=O)NC2CC2)cc1-c1ccc2c(cnn2-c2ccc(C(F)(F)F)cc2)c1, CCNC(=O)c1ccc(C)c(-c2ccc3c(-c4cncnc4)n[nH]c3c2)c1, Cc1c(F)cc(C(=O)Nc2cc[nH]n2)cc1-c1ccc2c(cnn2-c2ccccc2)c1, COc1ccc(-c2noc3cc(-c4cc(C(=O)NC5CC5)cc(F)c4C)ccc23)cc1, Cc1cc(-n2ncc3cc(-c4cc(C(=O)NC5CC5)cc(F)c4C)ccc32)nc(C)n1, CCCNC(=O)c1cc(F)c(C)c(-c2ccc3c(cnn3-c3ccccc3)c2)c1, Cc1c(F)cc(C(=O)NC2CCC2)cc1-c1ccc2c(cnn2-c2ccccc2)c1, CCNC(=O)c1cc(F)c(C)c(-c2ccc3c(-c4ccc(C(F)(F)F)cc4)n[nH]c3c2)c1, CCNC(=O)c1cc(F)c(C)c(-c2ccc3c(cnn3-c3ccccc3)c2)c1, CCNC(=O)c1ccc(C)c(-c2ccc3c(-c4ccc(S(C)(=O)=O)cc4)n[nH]c3c2)c1, Cc1c(F)cc(C(=O)NCC2CC2)cc1-c1ccc2c(cnn2-c2ccccc2)c1, CCCCNC(=O)c1cc(F)c(C)c(-c2ccc3c(cnn3-c3ccccc3)c2)c1, COc1ccc(C2N=Nc3cc(-c4cc(C(=O)NC5CC5)ccc4C)ccc32)cc1 (configuration not stated), CCNC(=O)c1ccc(-c2n[nH]c3cc(-c4cc(C(=O)NCC)ccc4C)ccc23)nc1, CCNC(=O)c1cc(F)c(C)c(-c2ccc3c(-c4cccc[n+]4[O-])n[nH]c3c2)c1, Cc1c(F)cc(C(=O)NC2CC2)cc1-c1ccc2c(cnn2-c2cc(=O)[nH]cn2)c1, Cc1c(F)cc(C(=O)NC2CC2)cc1-c1ccc2c(ccn2-c2cccc(C#N)c2)c1, Cc1cc(F)ccc1-n1ncc2cc(-c3cc(C(=O)NC4CC4)cc(F)c3C)ccc21, Cc1c(F)cc(C(=O)NC2CC2)cc1-c1ccc2c(cnn2-c2ccc(Br)cc2)c1, COCCNc1ccc(-n2ncc3cc(-c4cc(C(=O)NC5CC5)cc(F)c4C)ccc32)cc1
